Key:
[1] = system: 6WI-1 mammary tumor cells; experiment: Mouse ascites mammary tumor assay (6WI-1 isograft); assay type: in vivo; details: for Suppression of accumulation of cells and ascites fluid volume (anticancer activity): 1.0 μg peptide per day for 11 days
Method: The growth suppression of the mammary ascites tumor by AFP peptides and its fragments P149a, P149b and P149c, and control peptides were determined in non-estrogen dependent assays which measured tumor cell growth and ascites accumulation of 6WI-1 mammary transplanted NYLAR/nya mice. […] Tumor cell inocula included doses of 0.3, 1.0, and 3.0×10^6 cells which produced host mortality at 12-14 days which was lethal in 100% of the animals. Following peptide dose titration studies, mice inoculated with 6WI-1 mammary cells were injected with a previously-determined optimal dose of 1.0 μg peptide per day or saline for 11 days. On day 12 following inoculation, the total accumulated ascites fluid volume and tumor cells in the peritoneal cavity of each animal were harvested and the cell count determined.
Inoculation of mice with all three cell doses led to an increase in body weight from 25 g (day 0) to approximately […] by day 12, due to the accumulation of tumor cells and ascites fluid in the intraperitoneal cavity. An average cell count in accumulated ascites fluid on day 12 was greater than 10^8 cells/ml with a total ascites volume approximating 20 mls. Tumor cell proliferation in this model has been reported to correlate with the volume of ascites fluid accumulated.
The 6WI-1 mouse mammary tumor studies involving peptide and non-peptide treatment were further compared by histopathological analysis performed on hematoxylin/eosin stained tissue sections.

[2] = system: LNCaP human prostate tumor cells; experiment: Whole-cell voltage clamp of LNCaP cells; assay type: cell-based; details: 10 μM
Method: LNCaP human prostate tumor cells were cultured on 5×5 mm plastic coverslips and were transferred to a microperfusion chamber on the stage of an inverted microscope. Whole-cell voltage clamp was accomplished with an Axopatch 200B (Axon Instr. Co., Union City, Calif.) using ruptured patches. Borosilicate glass capillaries (1.2 mm OD, 0.68 ID, type EN-I, Garner Glass Co., Claremont, Calif.) were used to fabricate patch pipettes (3-8 MΩ in the bath solution) with a Brown-Flaming horizontal micropipette puller (P-87, Sutter Instruments, San Rafael, Calif.). Patch-pipette tips were heat-polished prior to use. A micromanipulator (Narishige) fixed to the microscope positioned the pipettes. Electrode capacitance and access resistance were compensated prior to measurements. All experiments will be performed at room temperature (20-22° C.). The standard extracellular salt solution for ion currents contained (in mM): 150 NaCl, 6 KCl, 1.5 CaCl2, 1 MgCl2, 10 HEPES, 10 glucose, and pH adjusted to 7.4 with 1 N NaOH. […] Electrophysiological recordings were procured and analyzed using PClamp8 software (Axon Instr. Co, Union City, Calif.) and the WinASCD software (Guy Droogmans, Katholieke Universiteit; Leuven, B E). All results were recorded on computer hard drive or on digital audio tape (DAT). […]

MCF-7 cells = experiment: Estrogen-dependent MCF-7 foci formation assay; assay type: cell-based, human; design: % Inhibition Of Activity: MCF-7 foci formation: concentration or dose not given beside the values
Description: Mizejewski et al., “Alpha-fetoprotein derived synthetic peptides: assay of an estrogen-modifying regulatory segment” Mol Cell Endocrinol 118:15-23 (1996). The P149 peptide inhibited the formation of tumor cell foci formed as a result of the accumulation of breast cancer cells which clump together due to loss of contact inhibition.

[3] = system: human kidney tumor cell line
human platelets = experiment: Platelet aggregation in human platelet-rich plasma; assay type: cell-based; design: % Inhibition Of Activity: Platelet Agg. ADP / % Inhibition Of Activity: Platelet Agg. AA / % Inhibition Of Activity: Platelet Agg. Coll: concentration or dose not given beside the values
Method: FIG. 9 presents exemplary data showing platelet aggregation modulation using 0.5 ml of normal human platelet-rich plasma (PRP) with varying amounts of P149 or P 149b using 2.5×10^6 platelets per reaction vessel.
FIG. 10 presents exemplary data showing platelet aggregation activation by arachidonic acid (AA) and collagen using P149-treated platelet suspensions • Panel A1: AA alone; • Panel A2: AA followed by epinephine (EPI) and EPI alone using P149b; • Panel A3: CD62P flow cytometry fluorescence quenching by P149; • Panel B1: collagen alone and collagen+P149; • Panel B2: collagen alone; collagen+P149a showing aggregation diminution.
GIP-derived peptide fragments and/or subfragments have been assayed for platelet aggregation by measuring light transmissions with an aggregometer using a stirred human platelet suspension. Kinlough-Rathbone et al., In: Platelet Aggregation in Measurements of Platelet Function, Eds. Harker L A, Zimmerman T S., Churchill Livingstone, London. pp. 64-87 (1983); and Whittle et al., “Specificity between the anti-aggregatory actions of prostacyclin, prostaglandin Eland D2 on platelets” In: Mechanisms of stimulus—response coupling in platelets, Eds. V. V. K., MacIntyre D E, Scully M F., New York and London: Plenum Press. pp. 109-115 (1985).
The ability of GIP and its fragments were individually examined for aggregation inhibition using citrated human platelet-rich plasma (PRP). The peptides were freshly dissolved in 0.15 M NaCl containing 2.5×10^6 platelets/ml. […]

[4] = system: immature mouse uterine growth; experiment: E2-activated immature mouse uterine growth assay; assay type: in vivo; design: concentration or dose not given beside the values
[5] = system: immature mouse uterine growth; experiment: E2-activated immature mouse uterine growth assay; assay type: in vivo; design: % Inhibition Of Activity: Uterine Growth: concentration or dose not given beside the values; details: mouse, in vivo
Method: FIG. 3 presents exemplary data showing the growth suppressive activities of the oligomeric forms of P149, cyclic versus linear, are depicted in various in vitro and in vivo models. Biological activity was determined by three growth-dependent bioassays, namely; • Panel-A and A1) an immature rodent uterine bioassay; • Panel-B and B 1) an in vitro MCF-7 foci assay; • Panel-C and C1) an in vitro tumor cell cytostatic assessment. […] See text for details. Scrambled peptide=P327. […]

[6] = system: MCF-7 and 6WI-1 tumor cells; experiment: Tumor cell adhesion to ECM proteins in microtiter plates; assay type: cell-based, human, murine
Method: FIG. 8 presents exemplary data showing the inhibition of P149 in the cellular adhesion of cancer cells to extracellular matrix (ECM) proteins for both human MCF-7 breast cancer cells and for murine 6WI-1 ascites-adapted mammary tumor cells. The cellular adhesion assay was performed in 96-well microtiter plates (Nunc Company, Denmark, catalog #263339) and the wells were pre-coated with 100 microliters of each of the above-mentioned ECM proteins for 24 hours as previously determined. After adding tumor cells, the plates were then incubated at 37° C. for various times; while 6WI-1 cells usually required only 2-4 hours incubation for adhesion; MCF-7 cells required 24 hours for attachment following trypsinization. For both cell lines, the cell culture media contained 5% calf serum to ensure cell attachment. The plates were washed twice with Hank's Saline, fixed in 0.5 mL of 37% formaldehyde, stained with crystal violet and read at […] on a microplate reader. Inset: Using a CyQUANT® stain kit, (Hoechst Corp., Germany) the plates were first exposed to a freeze/thaw cycle at −70° C. for 24 hours and 37° C. for 10 minutes. CyQUANT® buffer solution (150 microliters) was added to each well, and the cell adhesion was measured by fluorescence spectroscopy and quantitated using an ImageQuant® plate scanner (Fluorimager 595, Molecular Dynamics, Sunnyvale, Calif.).
This attachment of GIP was a slightly weaker adhesion matrix than was gelatin, chondroitin sulfate, and poly-lysine which approximated 30-35%. Using P149, the optimal amount of peptide required to inhibit tumor cell adhesion was determined by absorbing soluble peptide (1.0 pg to 100 μg) to the walls of microtiter plates. A constant number of MCF-7 tumor cells (i.e., for example, 1×10^5) were then added to the microtiter well and adhesion quantitated by fluorescence. […] The quantitation of MCF-7 and 6WI-1 cell adhesion in the presence of peptide versus peptide-free media was then determined on ECM-coated microtiter plates using 3 μg GIP/well as a competitive inhibitor. The P149 peptide was added to the wells immediately after the cells were dispensed and then the mixture was incubated as described. The AFP peptide was capable of cell adhesion inhibition in most of the ECM proteins in both tumor cell lines. Inhibition of mouse and human tumor cell adhesion was somewhat equivalent using collagen IV, fibrinogen, fibronectin, and thrombospondin. […] Thus, the GIP was found capable of eliciting different attachment inhibitions dependent on the type of ECM protein coating the wall of the microtiter plate and also the tumor cell type involved.

Estrogen fetotoxicity = experiment: Estrogen fetotoxicity; design: concentration or dose not given beside the values; details: in vivo
[7] = system: 6WI-1 mammary tumor cells; experiment: 6WI-1 mammary tumor in 15-day old mouse pups (6 day assay); assay type: in vivo; design: % Inhibition Of Activity: 6WI-1 Pup Ascites: concentration or dose not given beside the values; details: mouse pups
Description: As an alternative model of the 6WI-I mammary tumor in adult mice, an inocula of 1×10^6 tumor cells injected into 15-day old mouse pups provided a 6 day rather than a 12 day assay and replicated the same tumor growth suppression by GIP.

[8] = 1 × 10^6 tumor cells I.P., daily injections for eleven days, N = 5
[9] = 6WI-1 mouse mammary ascites tumor

GINHLPSDAVGTAIEVMPCLRDGKLCIGAEHIEL (listed as Homo sapiens) [P327]
Suppression of accumulation of cells and ascites fluid volume (anticancer activity) [1]: totally lacked anticancer activity | Metastatic histopathological findings: Abdominal Muscle [1, 8]: Focal tumor infiltrate | Metastatic histopathological findings: Gross Findings [1, 8]: Presence of tumor | Metastatic histopathological findings: Kidney [1, 8]: No infiltrate | Metastatic histopathological findings: Liver [1, 8]: No infiltrate | Metastatic histopathological findings: Pancreas [1, 8]: Distinct presence of | Metastatic histopathological findings: Retro-peritoneal mesentery and fat [1, 8]: Extensive tumor infiltrate | Metastatic histopathological findings: Spleen [1, 8]: No infiltrate | Metastatic histopathological findings: Uterus + Ovary [1, 8]: Tumor encased organ | Metastatic tumor infiltration, histopathology summary ([1]; mouse, in vivo): high-to-moderate tumor infiltrates | Whole-cell membrane current [2]: no effect on membrane current

MTPVNPGV (listed as Homo sapiens) [P149c]
% Inhibition Of Activity: MCF-7 foci formation (MCF-7 cells): 45% | % Inhibition Of Activity: Kidney tumor growth [3]: 19% | Inhibition of platelet aggregations induced by ADP and collagen (human platelets): no significant inhibition | % Inhibition Of Activity: Platelet Agg. ADP (human platelets; ADP-induced): 0% | % Inhibition Of Activity: Platelet Agg. AA (human platelets; arachidonic acid-induced): 0% | % Inhibition Of Activity: Platelet Agg. Coll (human platelets; collagen-induced): 0% | Platelet aggregation inhibition (human platelets; inducer not specified): lack inhibitory capabilities | Inhibition (%) Of Platelet Aggregation, Adenosine Diphosphate (ADP) 2.5 μM (human platelets; peptide inhibitors 30 & 100 μM): No effect | Inhibition (%) Of Platelet Aggregation, Arachidonic Acid (AA) 0.3 mM (human platelets; peptide inhibitors 30 & 100 μM): No effect | Inhibition (%) Of Platelet Aggregation, Collagen (COLL) 2 μg/ml (human platelets; peptide inhibitors 30 & 100 μM): No effect | Inhibition (%) Of Platelet Aggregation, Epinephrine (human platelets; peptide inhibitors 30 & 100 μM): No effect | % Inhibition Of Activity: Uterine Growth, Enzymatic Fragments [4]: 44% | Suppression of accumulation of cells and ascites fluid volume (anticancer activity) [1]: significantly suppressed | % Inhibition Of Activity: 6WI-1 Acites Volume [1, 9]: 39% | % Inhibition Of Activity: 6WI-1 Body Weight [1, 9]: 44% | % Inhibition Of Activity: 6WI-1 Cell Prol [1, 9]: 45% | % Inhibition Of Activity: Uterine Growth [5]: 42% | % Inhibition Of Activity: Cell Adhesion [6]: 56% | % Inhibition Of Activity: Estrogen Fetotoxicty (Estrogen fetotoxicity): 37% | % Inhibition Of Activity: 6WI-1 Pup Ascites [7]: 29%

Reference: US20060111289A1, “Compositions and methods of using Alpha-fetoprotein growth inhibitory peptides” (Serometrix, LLC,, priority 2004, published 2006)
